Entries after “also recorded” stand apart in the source; their conditions may differ. Where a SMILES comes first, the peptide text is derived from it. Bridges are numbered along the chain shown (N, C = ends). [ ]: non-standard residue; d: D form. The star is where a group is joined. X1 = OC[C@H]1OC(*)[C@H](O)[C@@H](O)[C@@H]1O; Dap = NC[C@H](N)C(=O)O
Tests used:
[1] = target: human Mu Opioid Receptor (MOR) (Homo sapiens, UniProt P35372); experiment: biochemical; format: binding
OTR = OTR (Homo sapiens, UniProt P30559); experiment: EC50 (nM) | OTR
Sequence of OTR (P30559 whole entry, looked up): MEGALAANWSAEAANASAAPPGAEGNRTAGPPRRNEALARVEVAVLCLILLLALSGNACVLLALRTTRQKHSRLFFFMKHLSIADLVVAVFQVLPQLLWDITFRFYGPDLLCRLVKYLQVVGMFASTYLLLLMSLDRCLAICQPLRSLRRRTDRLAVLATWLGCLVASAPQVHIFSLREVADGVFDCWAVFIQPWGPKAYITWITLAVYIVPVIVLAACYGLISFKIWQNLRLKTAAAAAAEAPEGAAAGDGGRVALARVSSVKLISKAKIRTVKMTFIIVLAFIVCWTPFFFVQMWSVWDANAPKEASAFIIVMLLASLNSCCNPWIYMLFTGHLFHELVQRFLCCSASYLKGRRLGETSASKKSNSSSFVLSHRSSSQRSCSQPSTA
Description: Table printed on a drawing sheet, FIG. 6
The patent's description of the figure: FIG. 6 is a table showing EC50 for OXTR agonistic activity for some of the representative cyclic oligopeptides of the invention.
First copying reader's note: Each value cell holds the EC50 together with its ± error; NA is not defined on the sheet.

[2] = Paclitaxel-induced CIPN, Von Frey filaments mechanical threshold, icv injection; format: in vivo, CD-1 mice; conditions: 10 nmol icv on day 8, 2 mg/kg paclitaxel on days 1, 3, 5, 7
[3] = 52° C. warm water tail flick assay, icv injection; format: in vivo; conditions: 10 nmol icv, male and female CD-1 mice
[4] = 52° C. warm water tail flick assay, iv injection; format: in vivo, CD-1 mice; conditions: 10 mg/kg iv; for anti-nociception in tail flick assay: 10 second cutoff, male and female CD-1 mice

Sequence of human Mu Opioid Receptor (MOR) (P35372 whole entry): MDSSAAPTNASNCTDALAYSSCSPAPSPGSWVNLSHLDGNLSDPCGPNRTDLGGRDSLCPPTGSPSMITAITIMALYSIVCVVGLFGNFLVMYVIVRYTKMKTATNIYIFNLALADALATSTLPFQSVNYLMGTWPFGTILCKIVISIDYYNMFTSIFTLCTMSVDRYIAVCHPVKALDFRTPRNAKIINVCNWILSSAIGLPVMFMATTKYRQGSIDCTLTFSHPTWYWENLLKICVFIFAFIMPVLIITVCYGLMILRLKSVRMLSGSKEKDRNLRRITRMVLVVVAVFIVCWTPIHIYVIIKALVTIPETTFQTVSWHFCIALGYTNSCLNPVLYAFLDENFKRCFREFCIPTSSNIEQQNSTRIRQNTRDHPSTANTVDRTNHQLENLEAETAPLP

Row | SMILES | IC50 [1] [nM] | Ki [1] [nM] | EC50 (OTR) [nM] | anti-nociception in CIPN model (mechanical threshold) [2] | anti-nociception in tail flick assay [3] | peak effect in tail flick assay [4] | anti-nociception in tail flick assay [4] | anti-nociception in tail flick assay ([4]; listed as Native OT)
1 | CC[C@H](C)[C@@H]1NC(=O)[C@H](Cc2ccc(O)cc2)NC(=O)[C@@H](N)CCC(=O)NC[C@@H](C(=O)N2CCC[C@H]2C(=O)N[C@@H](CC(C)C)C(=O)NCC(N)=O)NC(=O)[C@H](CC(N)=O)NC(=O)[C@H](CCC(N)=O)NC1=O [2LS118-2, Glu-Tyr-Ile-Gln-Asn-Dap-Pro-Leu-Gly-CONH2 (SEQ ID NO: 6)] (H-EYIQN[Dap]PLG-NH2; lactam 1-6) | > 2500 | > 2500 | 7040 ± 2960 |  |  |  |  | 
2 | CC[C@H](C)[C@@H]1NC(=O)[C@H](Cc2ccc(O)cc2)NC(=O)[C@@H](N)CC(=O)NC[C@@H](C(=O)N2CCC[C@H]2C(=O)N[C@@H](CC(C)C)C(=O)N[C@@H](COC2O[C@H](CO)[C@@H](O)[C@H](O)[C@H]2O)C(N)=O)NC(=O)[C@H](CC(N)=O)NC(=O)[C@H](CCC(N)=O)NC1=O (stereo partly drawn) [2LS118-4, Asp-Tyr-Ile-Gln-Asn-Dap-Pro-Leu-SerGlc-CONH2 (SEQ ID NO: 8)] (H-DYIQN[Dap]PLS(X1)-NH2; lactam 1-6; N-terminus assumed) |  |  |  | high anti-nociceptive efficacy; also recorded: substantially equivalent anti-nociception | the same degree and duration of anti-nociceptive activity; also recorded: substantially equivalent anti-nociception | significantly higher peak effect than 2LS118-1 | near-maximal efficacy comparable to 10 mg/kg morphine; also recorded: almost half to full maximal efficacy vs. morphine | 
3 | CC[C@H](C)[C@@H]1NC(=O)[C@H](Cc2ccc(O)cc2)NC(=O)[C@@H](N)CSSC[C@@H](C(=O)N2CCC[C@H]2C(=O)N[C@@H](CC(C)C)C(=O)NCC(N)=O)NC(=O)[C@H](CC(N)=O)NC(=O)[C@H](CCC(N)=O)NC1=O [native OT, Cys-Tyr-Ile-Gln-Asn-Cys-Pro-Leu-Gly-CONH2 (SEQ ID NO: 1), reference compound] |  |  |  |  | the same degree and duration of anti-nociceptive activity; also recorded: substantially equivalent anti-nociception |  | no anti-nociception; also recorded: no efficacy | no effect
4 | CC[C@H](C)[C@@H]1NC(=O)[C@H](Cc2ccc(O)cc2)NC(=O)[C@@H](N)CNC(=O)C[C@@H](C(=O)N2CCC[C@H]2C(=O)N[C@@H](CC(C)C)C(=O)NCC(N)=O)NC(=O)[C@H](CC(N)=O)NC(=O)[C@H](CCC(N)=O)NC1=O [2LS118-3, Dap-Tyr-Ile-Gln-Asn-Asp-Pro-Leu-Gly-CONH2 (SEQ ID NO: 7)] (H-[Dap]YIQNDPLG-NH2; lactam 1-6) | > 2500 | > 2500 |  |  |  |  |  | 
5 | CC[C@H](C)[C@@H]1NC(=O)[C@H](Cc2ccc(O)cc2)NC(=O)[C@@H](N)CC(=O)NC[C@@H](C(=O)N2CCC[C@H]2C(=O)N[C@@H](CC(C)C)C(=O)NCC(N)=O)NC(=O)[C@H](CC(N)=O)NC(=O)[C@H](CCC(N)=O)NC1=O [2LS118-1, Asp-Tyr-Ile-Gln-Asn-Dap-Pro-Leu-Gly-CONH2 (SEQ ID NO: 5)] (H-DYIQN[Dap]PLG-NH2; lactam 1-6) | > 2500 | > 2500 | 3760 ± 3120 |  |  |  |  | 

Reference: patent US12649765B2 (Arizona Board of Regents on Behalf of the University of …, priority 2020, dated 2026)
